Experiments:
[1] = target: T1, Cdc7-ASK complex (Homo sapiens, UniProt O00311); assay: ELISA system for measuring inhibition of Cdc7-ASK complex phosphorylation activity (GST-Mcm2 (1-130 a.a.) substrate, anti-Mcm2-phospho-S17 antibody); assay type: biochemical; conditions: for concentration-dependent inhibitory effect for Cdc7-ASK complex: ELISA, inhibitor dilution series, FIG. 8
T1 construct: made in house; host or cells: E. coli C600 lon-
Procedure: GST-Mcm2 (1-130 a.a.) and GST-Mcm2 (1-80 a.a.) were diluted to 5 μg/ml using 0.1 M carbonate buffer, pipetted at 50 μl/well in to each well of a microtiter plate for ELISA, and then sensitized overnight at 4° C. The sensitizing solution was removed, a blocking solution (1% BSA, 5% sucrose and 0.1% NaN3/PBS) was pipetted in to each well at 200 μl/well, and the plate was allowed to stand for about one hour at room temperature. The blocking solution was then completely removed. The plates were then air-dried in a draft chamber, and stored at 4° C. until use. GST-Mcm2 (1-130 a.a.) and GST-Mcm2 (1-80 a.a.) were immobilized on the inner walls of the microtiter plates by this procedure.
A recombinant Cdc7-ASK complex dilution series was prepared by diluting from one-fold (×1) to 64-fold in two-fold increments using a phosphorylation buffer. 50 μl aliquots of this solution were added to the wells of the immobilized plates (a protein phosphorylation reaction). After incubating at 30° C. for a fixed period of time, the phosphorylation reaction solution was discarded and each well was amply washed four or more times with PBS. […] The primary antibody reaction solution was then discarded and each well was amply washed four or more times with PBS. Anti-rabbit immunoglobulin antibody (secondary antibody, MBL) labeled with horseradish peroxidase (HRP) was then diluted 1000-fold with PBS and added to each well in 50 μl aliquots, then allowed to react for 30 to 60 minutes at room temperature (secondary antibody reaction). The secondary antibody reaction solution was then discarded and each well was washed four or more times with PBS. A coloring substrate solution was then added to each well in 50 μl aliquots, and color was developed for five to 20 minutes (coloring reaction). The coloring reaction was stopped by adding 50 μl aliquots of reaction stopping solution to each well, and the optical absorbance at 450 nm was measured using a microplate reader. […]

[2] = target: T2, HA-huCdc7 (wild type) (human, UniProt O00311 14-574); assay: co-purification on glutathione Sepharose 4B from E. coli co-expression, SDS-PAGE with silver staining
T2 construct: also called HA-Cdc7
T2 sequence (O00311 other isoform, or with tags, fused parts or gaps): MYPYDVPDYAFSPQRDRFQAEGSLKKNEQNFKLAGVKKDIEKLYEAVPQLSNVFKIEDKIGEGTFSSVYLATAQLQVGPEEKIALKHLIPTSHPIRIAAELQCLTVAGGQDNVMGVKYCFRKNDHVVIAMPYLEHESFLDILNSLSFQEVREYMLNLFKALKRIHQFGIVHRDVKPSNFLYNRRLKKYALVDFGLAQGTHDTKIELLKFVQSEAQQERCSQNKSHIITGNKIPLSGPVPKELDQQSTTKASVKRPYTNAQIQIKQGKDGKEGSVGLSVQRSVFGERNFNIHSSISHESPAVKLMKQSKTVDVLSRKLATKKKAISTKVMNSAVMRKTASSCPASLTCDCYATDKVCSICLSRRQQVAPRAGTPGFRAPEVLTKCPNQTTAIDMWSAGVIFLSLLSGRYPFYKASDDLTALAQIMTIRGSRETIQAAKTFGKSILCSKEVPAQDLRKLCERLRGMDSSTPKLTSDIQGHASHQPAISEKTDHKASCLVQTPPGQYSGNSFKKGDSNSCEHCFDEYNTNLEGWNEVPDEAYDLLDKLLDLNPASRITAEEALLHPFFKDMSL

T1 sequence (O00311 14-574 limits assumed, one chain of several): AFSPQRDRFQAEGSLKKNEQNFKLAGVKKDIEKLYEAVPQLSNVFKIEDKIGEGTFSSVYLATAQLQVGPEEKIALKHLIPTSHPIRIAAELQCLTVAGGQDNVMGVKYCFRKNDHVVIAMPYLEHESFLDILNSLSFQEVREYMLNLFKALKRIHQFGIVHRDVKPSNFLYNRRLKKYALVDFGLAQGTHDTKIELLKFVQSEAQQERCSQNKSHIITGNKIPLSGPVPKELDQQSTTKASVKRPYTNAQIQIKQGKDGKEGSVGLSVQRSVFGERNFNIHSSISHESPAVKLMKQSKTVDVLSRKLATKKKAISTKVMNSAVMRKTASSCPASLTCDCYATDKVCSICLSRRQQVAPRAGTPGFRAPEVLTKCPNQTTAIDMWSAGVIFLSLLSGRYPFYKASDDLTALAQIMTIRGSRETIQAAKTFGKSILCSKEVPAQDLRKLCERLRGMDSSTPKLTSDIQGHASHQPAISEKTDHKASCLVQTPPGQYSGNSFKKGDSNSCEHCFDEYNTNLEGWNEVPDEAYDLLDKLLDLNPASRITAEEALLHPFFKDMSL

Molecule	concentration-dependent inhibitory effect for Cdc7-ASK complex [1]	IC50 [1]	binding result [2]
CC[C@H](CO)Nc1nc(NCc2ccccc2)c2ncn(C(C)C)c2n1 [Roscovitine]	not observed		
COC(=O)[C@@]1(O)C[C@H]2O[C@]1(C)n1c3ccccc3c3c4c(c5c6ccccc6n2c5c31)C(=O)NC4 [K-252a]	concentration-dependent	2000 nM	
GST-TAT-ASK(minimum) (other, also called GST-ASK; partial ASK) YGRKKRRQRRRDIRYYIEQKKKELYLLKKSSTSVRDGGKRVGSGAQKTRTGRLKKPFVKVEDMSQLYRPFYLQLTNMPFINYSIQKPCSPFDVDKPSSMQKQTQVKLRIQTDGDKYGGTSIQLQLKEKKKKGYCECCLQKYEDLETHLLSEQHRNFAQSNQYQVVDDIVSKLVFDFVEYEKDTPKKK			binds

Source: US20050250166A1, “Cdc7-ask kinase complex, substrates of the kinase complex, antibody specific to the substrate, and method of screening compound capable of inhibiting cdc7-ask kinase using the same” (Medical and Biological Laboratories Co. Ltd., priority 2002, published 2005)
